The results in this text go back to patent US20090181948A1, “DIAMINE DERIVATIVE” (KYOWA HAKKO KOGYO CO., LTD., priority 2005, published 2009).

This assay concerns the target T1, histamine H3 receptor (Rattus norvegicus, UniProt Q9QYN8).
T1 construct: from tissue; host or cells: rat striatum (Sprague-Dawley, male, 6 weeks), membrane homogenate
The assay is described as follows: Histamine H3 receptor binding assay ([3H]-Nα-methylhistamine binding to rat striatum homogenate). The note with it: 1 μmol/L test compound; [3H]-Nα-methylhistamine 1 nmol/L; striata of Sprague-Dawley male rats, 25° C., 1 hour; read-out: Inhibition ratio of [3H]-Nα-methylhistamine binding. As to the method: To the striata of Sprague-Dawley male rats (6 weeks of age), a 10-fold volume of lysis buffer {50 mmol/L [[…] (Tris)]/HCl (pH 7.4), 5 mmol/L ethylenediaminetetraacetic acid (EDTA), a protease inhibitor mixture [1 mg/mL phenylmethylsulfonyl fluoride (PMSF), 1 μg/mL pepstatin A, 1 μg/mL leupeptin, 1 μg/mL chymostatin]} was added and the striata were homogenized. The resulting homogenate was centrifuged (30,000×g, 4° C., 30 min), and the obtained precipitate was resuspended in a 10-fold volume of lysis buffer, followed by centrifugation under the same condition. To the obtained precipitate, a 3-fold volume of lysis buffer was added to suspend the precipitate, and the resulting tissue homogenate was used for a test.
A test compound was dissolved in an assay buffer [50 mmol/L Tris/HCl (pH 7.4), 5 mmol/L EDTA], and [^3H]-N^α-methylhistamine (1 nmol/L) and the tissue homogenate (20 μg, in terms of protein amount) were added thereto, and then, the mixture was incubated at 25° C. for 1 hour. Then, the reaction was terminated by rapid suction filtration on a glass filter [GF/B: Whatman, previously soaked in 0.3 w/v % polyethylenimine for about 30 min]. Then, the glass filter was washed three times with 3 mL of assay buffer. This glass filter was transferred into a scintillation vial and dried at 60° C. for 30 minutes. Then, 0.5 mL of Ultimagold (Perkin Elmer) was added thereto, and the radioactivity (binding amount of [^3H]-N^α-methylhistamine) was measured using a liquid scintillation counter. The obtained value was used as a binding amount in the presence of the test compound. The same procedure as described above was carried out in the absence of the test compound, and the binding amount of [^3H]-N^α-methylhistamine obtained at this time was used as a binding amount in the absence of the test compound. Further, the binding amount of [^3H]-N^α-methylhistamine obtained in the presence of 10 μmol/L thioperamide was used as a non-specific binding amount. An inhibitory action of [^3H]-N^α-methylhistamine binding was represented by an inhibition ratio in terms of 1 μmol/L of the test compound calculated by the following Equation (1).
Inhibition ratio(%)={1−[(Binding amount in the presence of test compound)−(Non-specific binding amount)]/[(Binding amount in the absence of test compound)−(Non-specific binding amount)]}×100 (1)

Some results are limits rather than exact numbers.

T1 sequence (Q9QYN8 whole entry): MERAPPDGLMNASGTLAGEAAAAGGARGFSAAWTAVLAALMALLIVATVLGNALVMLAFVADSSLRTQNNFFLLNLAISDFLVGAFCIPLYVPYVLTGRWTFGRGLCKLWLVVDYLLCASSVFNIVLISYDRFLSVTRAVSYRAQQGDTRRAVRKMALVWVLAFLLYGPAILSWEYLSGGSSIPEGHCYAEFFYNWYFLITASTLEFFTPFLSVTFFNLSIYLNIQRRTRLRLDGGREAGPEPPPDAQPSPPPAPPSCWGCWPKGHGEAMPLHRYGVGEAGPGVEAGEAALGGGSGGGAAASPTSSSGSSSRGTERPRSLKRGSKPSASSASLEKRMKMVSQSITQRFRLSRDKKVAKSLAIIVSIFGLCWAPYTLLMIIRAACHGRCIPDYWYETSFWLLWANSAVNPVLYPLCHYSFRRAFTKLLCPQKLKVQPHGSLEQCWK

Regarding `CC1CCCN1CCCN1CCN(CCCN2CCCC2C)C1=NC#N` (stereo not drawn) [Compound 140, 1,3-Bis[3-(2-methylpyrrolidin-1-yl)propyl]imidazolidin-2-ylidenecyanoamide Difumarate], the inhibition at 1 µM was at least 80%. In the case of `CC1CCCCN1CCCN1CCN(CCCN2CCCC2)C1=C(C#N)C#N` (stereo not drawn) [Compound 93, {1-[3-(2-Methylpiperidino)propyl]-3-[3-(pyrrolidin-1-yl)propyl]imidazolidin-2-ylidene}malononitrile] it was at least 80%; in that of `C[C@@H]1C[C@H](C)CN(CCN2CCN(CCCN3CCCC3)C2=C(C#N)C#N)C1` [Compound 18, {1-[2-(Cis-3,5-dimethylpiperidino)ethyl]-3-[3-(pyrrolidin-1-yl)propyl]imidazolidin-2-ylidene}malononitrile], at least 80%; in that of `N#CC(C#N)=C1N(CCCCN2CCCCC2)CCN1CCCN1CCCCC1` [Compound 8, [1-(4-Piperidinobutyl)-3-(3-piperidinopropyl)imidazolidin-2-ylidene]malononitrile], at least 80%. Consider `N#CC(C#N)=C1N(CCCN2CCCCCC2)CCN1CCCN1CCCC1` [Compound 69, {1-[3-(Azepan-1-yl)propyl]-3-[3-(pyrrolidin-1-yl)propyl]imidazolidin-2-ylidene}malononitrile], for which the inhibition at 1 µM is at least 80%. In the case of `N#CC(C#N)=C1N(CCCN2CCCCCC2)CCN1CCN1CCCCC1` [Compound 46, {1-[3-(Azepan-1-yl)propyl]-3-(2-piperidinoethyl)imidazolidin-2-ylidene}malononitrile] it was at least 80%; in that of `CC1CC(C)CN(CCCN2CCN(CCCN3CCCC3C)C2=C(C#N)C#N)C1` (stereo not drawn) [Compound 110, {1-[3-(3,5-Dimethylpiperidino)propyl]-3-[3-(2-methylpyrrolidin-1-yl)propyl]imidazolidin-2-ylidene}malononitrile], at least 80%; in that of `N#CN=C1N(CCCN2CCCCC2)CCN1CCCN1CCCCC1` [Compound 139, 1,3-Bis(3-piperidinopropyl)imidazolidin-2-ylidene Cyanoamide Difumarate], at least 80%. The result for `N#CC(C#N)=C(NCCCN1CCCCC1)N1CCC(CN2CCCCC2)CC1` [Compound 172, [(4-Piperidinomethylpiperidino)(3-piperidinopropylamino)methylene]malononitrile] reads at least 80%; that for `CCN(CC)CCCN1CCN(CCN2CCCCC2)C1=C(C#N)C#N` [Compound 48, [1-(3-Diethylaminopropyl)-3-(2-piperidinoethyl)imidazolidin-2-ylidene]malononitrile], at least 80%. Take `CC1CCCN1CCCN1CCN(CCCN2CCN(C)CC2)C1=C(C#N)C#N` (stereo not drawn) [Compound 78, {1-[3-(4-Methylpiperazin-1-yl)propyl]-3-[3-(2-methylpyrrolidin-1-yl)propyl]imidazolidin-2-ylidene}malononitrile]: the inhibition at 1 µM was at least 80%. In the case of `CC1CCCN1CC1CCN(C(=C(C#N)C#N)N(C)CCN2CCC[C@@H]2C)CC1` (stereo partly drawn) [Compound 157, ({N-methyl-N-[2-((S)-2-methylpyrrolidin-1-yl)ethyl]amino}[4-(2-methylpyrrolidin-1-ylmethyl)piperidino]methylene)malononitrile] it was at least 80%. As for `CC1CCCN1CCCNC(=C(C#N)C#N)N1CCC(N2CCCCC2)CC1` (stereo not drawn) [Compound 170, {[3-(2-Methylpyrrolidin-1-yl)propylamino](4-piperidinopiperidino)methylene}malononitrile], the inhibition at 1 µM was at least 80%. For `CC1CCCN1CCCN1CCN(CCCN2CCCC2C)C1=C(C#N)S(=O)(=O)c1ccccc1` (stereo not drawn) [Compound 244, {1,3-Bis[3-(2-methylpyrrolidin-1-yl)propyl]imidazolidin-2-ylidene}benzenesulfonylacetonitrile], the inhibition at 1 µM was at least 80%. As for `CC(C)N1CCC(NC(=C(C#N)C#N)N2CCC(CN3CCCCC3)CC2)CC1` [Compound 178, [(1-Isopropylpiperidin-4-ylamino)(4-piperidinomethylpiperidino)methylene]malononitrile], the inhibition at 1 µM is at least 80%. Regarding `C[C@@H]1C[C@H](C)CN(CCN2CCN(CCCN3CC=CCC3)C2=C(C#N)C#N)C1` [Compound 27, {1-[3-(1,2,3,6-Tetrahydropyridin-1-yl)propyl]-3-[2-(cis-3,5-dimethylpiperidino)ethyl]imidazolidin-2-ylidene}malononitrile], the inhibition at 1 µM is at least 80%. With `CC1CC(C)CN(CCCN2CCN(CCCN3CC=CCC3)C2=C(C#N)C#N)C1` (stereo not drawn) [Compound 91, {1-[3-(1,2,3,6-Tetrahydropyridin-1-yl)propyl]-3-[3-(3,5-dimethylpiperidino)propyl]imidazolidin-2-ylidene}malononitrile], the inhibition at 1 µM is at least 80%. The result for `C[C@@H]1CCC[C@H](C)N1CCCN1CCN(CCN2CCCCC2)C1=C(C#N)C#N` [Compound 50, {1-[3-(Cis-2,6-dimethylpiperidino)propyl]-3-(2-piperidinoethyl)imidazolidin-2-ylidene}malononitrile Difumarate] reads at least 80%; that for `CC1CCCN1CCCN1CCN(CCCN2CCOCC2)C1=C(C#N)C#N` (stereo not drawn) [Compound 85, {1-[3-(2-Methylpyrrolidin-1-yl)propyl]-3-(3-morpholinopropyl)imidazolidin-2-ylidene}malononitrile], at least 80%.

With `CC1CC(C)CN(CCCN2CCN(CCN3CC(C)CC(C)C3)C2=C(C#N)C#N)C1` (stereo not drawn) [Compound 17, {1-[2-(3,5-Dimethylpiperidino)ethyl]-3-[3-(3,5-dimethylpiperidino)propyl]imidazolidin-2-ylidene}malononitrile], the inhibition at 1 µM was at least 80%. In the case of `CC(C)N1CCC(N2CCN(CCCN3CCCC3C)C2=C(C#N)C#N)CC1` (stereo not drawn) [Compound 219, {1-(1-Isopropylpiperidin-4-yl)-3-[3-(2-methylpyrrolidin-1-yl)propyl]imidazolidin-2-ylidene}malononitrile] it was at least 80%; in that of `CC1CCCN(CCCN2CCN(CCCN3CCOCC3)C2=C(C#N)C#N)C1` (stereo not drawn) [Compound 80, {1-[3-(3-Methylpiperidino)propyl]-3-(3-morpholinopropyl)imidazolidin-2-ylidene}malononitrile], at least 80%. The result for `CC(C)N1CCC(CN2CCN(CC3CCN(C(C)C)CC3)C2=C(C#N)C#N)CC1` [Compound 134, [1,3-Bis(1-isopropylpiperidin-4-ylmethyl)imidazolidin-2-ylidene]malononitrile] reads at least 80%. As for `N#CC(C#N)=C1N(CCCN2CCCCCC2)CCN1CCCN1CCCCCC1` [Compound 66, {1,3-Bis[3-(azepan-1-yl)propyl]imidazolidin-2-ylidene}malononitrile], the inhibition at 1 µM was at least 80%.

For the molecule `CC1CCCCN1CCCN1CCN(CCCN2CC=CCC2)C1=C(C#N)C#N` (stereo not drawn) [Compound 86, {1-[3-(1,2,3,6-Tetrahydropyridin-1-yl)propyl]-3-[3-(2-methylpiperidino)propyl]imidazolidin-2-ylidene}malononitrile], the inhibition at 1 µM is at least 80%.

For `C[C@H]1CCCN1CCCN1C(=C(C#N)C#N)N(CCCN2CCC[C@@H]2C)c2ccccc21` [Compound 125, {1,3-Bis[3-((S)-2-methylpyrrolidin-1-yl)propyl]benzimidazolidin-2-ylidene}malononitrile], the inhibition at 1 µM is at least 80%.

Turning to `CC1CC(C)CN(CCCN2CCN(CCCN3CCCCCC3)C2=C(C#N)C#N)C1` (stereo not drawn) [Compound 70, {1-[3-(Azepan-1-yl)propyl]-3-[3-(3,5-dimethylpiperidino)propyl]imidazolidin-2-ylidene}malononitrile], the inhibition at 1 µM was at least 80%. The result for `CCN(CC)CCN1CCN(CCCN2CCCCC2)C1=C(C#N)C#N` [Compound 49, [1-(2-Diethylaminoethyl)-3-(3-piperidinopropyl)imidazolidin-2-ylidene]malononitrile] reads at least 80%; that for `CC(C)N1CCC(N2CCN(CCN3CCC[C@@H]3C)C2=C(C#N)C#N)CC1` [Compound 210, {1-(1-Isopropylpiperidin-4-yl)-3-[2-((S)-2-methylpyrrolidin-1-yl)ethyl]imidazolidin-2-ylidene}malononitrile], at least 80%; that for `N#CC(C#N)=C1N(CCCNC2CCCCC2)CCN1CCN1CCCCC1` [Compound 62, [1-(3-Cyclohexylaminopropyl)-3-(2-piperidinoethyl)imidazolidin-2-ylidene]malononitrile], at least 80%.
